# Molecular target: T1, Pancreatic triacylglycerol lipase (Sus scrofa, UniProt P00591)
# T1 sequence (P00591 whole entry): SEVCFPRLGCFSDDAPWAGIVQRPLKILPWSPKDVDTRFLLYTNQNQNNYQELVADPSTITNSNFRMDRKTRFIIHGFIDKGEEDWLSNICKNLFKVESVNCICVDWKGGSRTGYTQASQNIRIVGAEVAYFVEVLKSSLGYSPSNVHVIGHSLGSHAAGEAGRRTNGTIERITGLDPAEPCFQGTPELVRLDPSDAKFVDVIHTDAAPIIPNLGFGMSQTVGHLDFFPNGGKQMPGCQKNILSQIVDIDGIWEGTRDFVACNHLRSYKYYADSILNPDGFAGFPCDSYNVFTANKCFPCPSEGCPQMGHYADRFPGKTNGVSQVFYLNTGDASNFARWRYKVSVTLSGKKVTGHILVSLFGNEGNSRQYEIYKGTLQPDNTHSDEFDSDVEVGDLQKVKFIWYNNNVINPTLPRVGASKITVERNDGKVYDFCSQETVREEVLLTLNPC
# Assay: Inhibition of pig pancreatic lipase assessed as p-NPB hydrolysis […]
row,SMILES,IC50
1,COc1cc([C@@H](O)[C@H](C)O)ccc1O (relative stereo),12.1 µM
2,COc1cc([C@H]2CC(=O)O[C@H]2C)ccc1O (relative stereo) [CURCULACTONE A],232 µM
3,COc1cc(C(=O)O)ccc1O [VANILLIC ACID],> 250 µM

# Results, then the compound that gave them:
row,IC50,SMILES
1,174 µM,COc1cc(C=O)ccc1O [VANILLIN]
2,9.1 µM,COc1cc([C@H](O)[C@H](C)O)ccc1O (relative stereo)
